Experiments:
CDK7/Cyclin H/MNAT1 = biological target: T1, CDK7/Cyclin H/MNAT1 (Homo sapiens, UniProt P50613); assay: Enzymatic assay for CDK7 (FRET based LANCE Ultra kinase assay); format: biochemical; settings: for IC50: read-out: CDK7 enzymatic activity (IC50 range)
T1 construct: purchased Invitrogen PR6749B
Procedure, shortened: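 Inhibition was measured at Km ATP by time-resolved FRET between a Eu anti-phospho antibody and a phosphorylated ULight peptide. The enzyme was the purified CDK7/cyclin complex, and data were curve-fitted.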

CDK5/p25 = biological target: T2, CDK5/p25 (Homo sapiens, UniProt Q00535); assay: Enzymatic assay for CDK5 (FRET based LANCE Ultra kinase assay); format: biochemical; settings: read-out: CDK5 enzymatic activity (IC50 range)
T2 construct: purchased Invitrogen PR8543B
T2 sequence (Q00535 whole entry): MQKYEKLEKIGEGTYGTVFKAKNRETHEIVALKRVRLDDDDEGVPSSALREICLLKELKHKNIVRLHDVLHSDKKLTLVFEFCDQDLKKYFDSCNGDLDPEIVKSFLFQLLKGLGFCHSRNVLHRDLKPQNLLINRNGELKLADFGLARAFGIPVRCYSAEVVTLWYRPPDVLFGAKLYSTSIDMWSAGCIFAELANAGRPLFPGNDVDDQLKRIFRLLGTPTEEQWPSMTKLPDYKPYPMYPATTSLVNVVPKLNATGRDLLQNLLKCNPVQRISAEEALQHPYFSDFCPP
T2 sequence (Q15078 99-307 partner limits assumed): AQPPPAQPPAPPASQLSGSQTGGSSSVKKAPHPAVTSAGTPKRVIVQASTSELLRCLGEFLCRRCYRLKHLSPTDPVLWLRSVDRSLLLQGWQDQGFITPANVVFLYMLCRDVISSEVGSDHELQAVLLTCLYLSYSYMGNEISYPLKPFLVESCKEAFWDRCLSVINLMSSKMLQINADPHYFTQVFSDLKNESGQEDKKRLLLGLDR
Procedure, shortened: (§1)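 TR-FRET (LANCE Ultra) kinase assay at ATP Km, ULight-MBP peptide substrate (68 nM), 8-dose 4-fold compound series in DMSO. Enzymes: […]; 60 min at 23° C., stopped with EDTA plus Eu-anti-phospho-MBP antibody, read 665/615 nm after 60 min.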

CDK1/Cyclin B = biological target: T3, CDK1/Cyclin B (Homo sapiens, UniProt P06493); assay: Enzymatic assay for CDK1 (FRET based LANCE Ultra kinase assay); format: biochemical; settings: read-out: CDK1 enzymatic activity (IC50 range)
T3 construct: purchased Invitrogen PR4768C
T3 sequence (P06493 whole entry): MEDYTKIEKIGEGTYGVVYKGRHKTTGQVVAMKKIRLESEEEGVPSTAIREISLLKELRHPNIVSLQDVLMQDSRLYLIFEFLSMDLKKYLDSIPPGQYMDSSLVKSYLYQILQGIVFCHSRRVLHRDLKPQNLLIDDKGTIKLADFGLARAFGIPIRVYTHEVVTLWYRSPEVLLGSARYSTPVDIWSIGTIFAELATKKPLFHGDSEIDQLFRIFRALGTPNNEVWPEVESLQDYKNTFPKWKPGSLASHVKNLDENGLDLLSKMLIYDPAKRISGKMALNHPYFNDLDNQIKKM
T3 sequence (P14635 whole entry partner): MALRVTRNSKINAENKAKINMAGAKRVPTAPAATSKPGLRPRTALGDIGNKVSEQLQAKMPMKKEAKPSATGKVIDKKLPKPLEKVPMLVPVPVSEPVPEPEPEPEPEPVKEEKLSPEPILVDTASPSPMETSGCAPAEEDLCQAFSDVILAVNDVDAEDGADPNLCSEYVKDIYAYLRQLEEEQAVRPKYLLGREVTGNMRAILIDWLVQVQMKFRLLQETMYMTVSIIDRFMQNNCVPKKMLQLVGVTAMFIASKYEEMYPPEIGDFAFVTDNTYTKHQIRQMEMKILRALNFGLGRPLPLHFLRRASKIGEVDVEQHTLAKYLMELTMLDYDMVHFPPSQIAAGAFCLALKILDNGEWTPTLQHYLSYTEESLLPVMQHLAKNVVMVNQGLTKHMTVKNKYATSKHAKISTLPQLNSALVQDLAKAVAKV
Procedure, shortened: as §1

H460 = assay: Cellular H460 viability assay (CellTiter-Glo, 72 hours); format: cell-based; settings: Homo sapiens, NCI-H460
Procedure, shortened: (§2)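 Mycoplasma-tested cells, seeded at densities chosen for each line, received compound or DMSO vehicle (under 0.1% final) for 72 hours. Duplicate cultures were then read for viability by CellTiter-Glo luminescence.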

RPMI-8226 = assay: Cellular RPMI-8226 viability assay (CellTiter-Glo, 72 hours); format: cell-based; settings: Homo sapiens
Description: All cell lines were routinely tested for mycoplasma.
The effect of the CDK7 inhibitor to inhibit the growth of target cancer cells was evaluated through the 72 hours time period of viability assay. Briefly, the candidate cell line ware plated in 96 well plate at the following density of cells respectively. […] DMSO solvent without compound served as a control and final DMSO concentration less than 0.1%. After 72 hours of incubation at 37° C., 5% CO2 incubator, cells were analyzed for the viability using the CellTiter-Glo Luminescent Cell Viability Assay (Promega, Cat #G7570). All viability assays were performed in duplicate and Luminescence was read using an Envision (Perkin Elmer, USA). Data was analyzed using XLfit software.

CDK2/Cyclin A = biological target: T4, CDK2/Cyclin A (Homo sapiens, UniProt P24941); assay: Enzymatic assay for CDK2 (FRET based LANCE Ultra kinase assay); format: biochemical; settings: read-out: CDK2 enzymatic activity (IC50 range)
T4 construct: purchased Invitrogen PV6290
Procedure, shortened: as §1

MV4-11 = assay: Cellular MV4-11 viability assay (CellTiter-Glo, 72 hours); format: cell-based; settings: Homo sapiens
Procedure, shortened: as §2

T1 sequence (P50613 whole entry): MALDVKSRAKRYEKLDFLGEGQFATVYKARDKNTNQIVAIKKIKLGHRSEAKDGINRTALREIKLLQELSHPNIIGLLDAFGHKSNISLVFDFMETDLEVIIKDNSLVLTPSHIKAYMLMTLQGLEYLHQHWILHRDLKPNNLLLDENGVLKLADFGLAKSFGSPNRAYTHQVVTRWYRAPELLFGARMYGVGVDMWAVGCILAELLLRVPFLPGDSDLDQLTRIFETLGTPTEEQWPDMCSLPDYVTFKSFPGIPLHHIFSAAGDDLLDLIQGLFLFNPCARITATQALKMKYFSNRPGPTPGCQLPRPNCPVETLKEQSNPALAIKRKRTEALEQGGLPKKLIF
T1 sequence (P51946 whole entry partner): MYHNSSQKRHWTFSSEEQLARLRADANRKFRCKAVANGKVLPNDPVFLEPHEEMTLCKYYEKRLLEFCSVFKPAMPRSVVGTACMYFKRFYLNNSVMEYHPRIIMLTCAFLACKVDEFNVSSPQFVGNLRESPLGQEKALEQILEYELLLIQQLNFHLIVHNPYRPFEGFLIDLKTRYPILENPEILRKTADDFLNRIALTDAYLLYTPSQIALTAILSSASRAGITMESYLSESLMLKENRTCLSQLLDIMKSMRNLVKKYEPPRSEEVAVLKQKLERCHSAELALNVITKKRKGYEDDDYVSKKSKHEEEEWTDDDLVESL
T1 sequence (P51948 whole entry partner): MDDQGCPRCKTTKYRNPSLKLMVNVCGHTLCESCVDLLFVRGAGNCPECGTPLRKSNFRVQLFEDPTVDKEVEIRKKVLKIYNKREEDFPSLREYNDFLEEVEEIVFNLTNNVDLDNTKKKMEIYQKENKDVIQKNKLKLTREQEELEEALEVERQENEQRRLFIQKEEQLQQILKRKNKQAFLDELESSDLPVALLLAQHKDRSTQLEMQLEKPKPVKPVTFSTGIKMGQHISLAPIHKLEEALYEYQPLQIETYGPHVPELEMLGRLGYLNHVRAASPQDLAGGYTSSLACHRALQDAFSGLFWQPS

CDK1/CDK7: Selectivity of CDK7 inhibition over CDK1 inhibition (CDK7/Cyclin H/MNAT1) | IC50 (CDK7/Cyclin H/MNAT1) [nM] | IC50 (CDK5/p25) [nM] | IC50 (CDK1/Cyclin B) [nM] | IC50 (H460) [nM] | IC50 (RPMI-8226) [nM] | IC50 (CDK2/Cyclin A) [nM] | IC50 (MV4-11) [nM] | Structure (SMILES) | CDK2/CDK7: Selectivity of CDK7 inhibition over CDK2 inhibition (CDK7/Cyclin H/MNAT1) | CDK5/CDK7: Selectivity of CDK7 inhibition over CDK5 inhibition (CDK7/Cyclin H/MNAT1)
C (C=less than 20 fold) | < 100 | < 100 | 100 to 1000 | < 1000 | < 1000 | < 100 | – | CC(C)c1cnn2c(NCc3ccccc3-c3ccc4[nH]ncc4c3)nc(N3CCC(N)CC3)nc12 [Compound 137] | C (C=less than 20 fold) | C (C=less than 20 fold)
A (A=greater than 200 fold) | < 100 | 100 to 1000 | > 1000 | 1000 to 10000 | 1000 to 10000 | 100 to 1000 | – | CC(C)c1cnn2c(NCc3cccc4ccc(N)nc34)nc(N3CCC(N)CC3)nc12 [Compound 142] | B (B=less than 200 fold, but greater than 20 fold) | B (B=less than 200 fold, but greater than 20 fold)
A (A=greater than 200 fold) | < 100 | > 1000 | > 1000 | 1000 to 10000 | 1000 to 10000 | > 1000 | – | CC(C)c1cnn2c(NCc3ccccc3N3CC4CCCCC4C3)nc(N3CCC(N)CC3)nc12 (stereo not drawn) [Compound 135] | B (B=less than 200 fold, but greater than 20 fold) | B (B=less than 200 fold, but greater than 20 fold)

The remaining lines, values behind:

Structure (SMILES) | CDK1/CDK7: Selectivity of CDK7 inhibition over CDK1 inhibition (CDK7/Cyclin H/MNAT1) | IC50 (CDK7/Cyclin H/MNAT1) [nM] | IC50 (CDK5/p25) [nM] | IC50 (CDK1/Cyclin B) [nM] | IC50 (H460) [nM] | IC50 (RPMI-8226) [nM] | IC50 (CDK2/Cyclin A) [nM] | IC50 (MV4-11) [nM] | CDK2/CDK7: Selectivity of CDK7 inhibition over CDK2 inhibition (CDK7/Cyclin H/MNAT1) | CDK5/CDK7: Selectivity of CDK7 inhibition over CDK5 inhibition (CDK7/Cyclin H/MNAT1)
CC(C)c1cnn2c(NCc3ccccc3-c3ccc4[nH]cnc4c3)nc(N3CCC(N)CC3)nc12 [Compound 123] | B (B=less than 200 fold, but greater than 20 fold) | < 100 | < 100 | 100 to 1000 | < 1000 | < 1000 | 100 to 1000 | < 1000 | B (B=less than 200 fold, but greater than 20 fold) | C (C=less than 20 fold)
CC(C)c1cnn2c(NCc3ccccc3-c3ccc4[nH]c(=O)[nH]c4c3)nc(N3CCC(N)CC3)nc12 [Compound 140] | B (B=less than 200 fold, but greater than 20 fold) | < 100 | < 100 | 100 to 1000 | 1000 to 10000 | 1000 to 10000 | 100 to 1000 | < 1000 | B (B=less than 200 fold, but greater than 20 fold) | C (C=less than 20 fold)
CC(C)c1cnn2c(NCc3ccccc3-n3cc4c(n3)CCC(=O)C4)nc(N3CCC(N)CC3)nc12 [Compound 132] | A (A=greater than 200 fold) | < 100 | 100 to 1000 | > 1000 | 1000 to 10000 | 1000 to 10000 | > 1000 | – | B (B=less than 200 fold, but greater than 20 fold) | B (B=less than 200 fold, but greater than 20 fold)
CC(C)c1cnn2c(NCc3ccccc3-c3[nH]c4ccccc4c3Cl)nc(N3CCC(N)CC3)nc12 [Compound 119] | A (A=greater than 200 fold) | < 100 | 100 to 1000 | > 1000 | < 1000 | 1000 to 10000 | 100 to 1000 | 1000 to 10000 | B (B=less than 200 fold, but greater than 20 fold) | B (B=less than 200 fold, but greater than 20 fold)
CC(C)c1cnn2c(NCc3ccccc3-c3ccc4[nH]c(NC(=O)C5CC5)nc4c3)nc(N3CCC(N)CC3)nc12 [Compound 141] | B (B=less than 200 fold, but greater than 20 fold) | < 100 | < 100 | 100 to 1000 | 1000 to 10000 | < 1000 | 100 to 1000 | – | B (B=less than 200 fold, but greater than 20 fold) | C (C=less than 20 fold)
CC(=O)c1ccc2nn(-c3ccccc3CNc3nc(N4CCC(N)CC4)nc4c(C(C)C)cnn34)cc2c1 [Compound 127] | A (A=greater than 200 fold) | < 100 | 100 to 1000 | > 1000 | < 1000 | < 1000 | 100 to 1000 | – | B (B=less than 200 fold, but greater than 20 fold) | B (B=less than 200 fold, but greater than 20 fold)
CC(C)c1cnn2c(NCc3ccccc3-c3cc4cc([N+](=O)[O-])ccc4[nH]3)nc(N3CCC(N)CC3)nc12 [Compound 121] | A (A=greater than 200 fold) | < 100 | 100 to 1000 | > 1000 | < 1000 | < 1000 | 100 to 1000 | – | B (B=less than 200 fold, but greater than 20 fold) | B (B=less than 200 fold, but greater than 20 fold)
CC(C)c1cnn2c(NCc3cccc(-c4cc5ccccc5[nH]4)c3)nc(N3CCC(N)CC3)nc12 [Compound 118] | B (B=less than 200 fold, but greater than 20 fold) | < 100 | 100 to 1000 | > 1000 | < 1000 | < 1000 | 100 to 1000 | – | B (B=less than 200 fold, but greater than 20 fold) | B (B=less than 200 fold, but greater than 20 fold)
CC(C)c1cnn2c(NCc3ccccc3-n3cc4cccc(NC(=O)CCCN(C)C)c4n3)nc(N3CCC(N)CC3)nc12 [Compound 126] | A (A=greater than 200 fold) | < 100 | 100 to 1000 | > 1000 | < 1000 | < 1000 | 100 to 1000 | – | B (B=less than 200 fold, but greater than 20 fold) | B (B=less than 200 fold, but greater than 20 fold)
CC(C)c1cnn2c(NCc3ccccc3-c3ccc4c(c3)CC(=O)N4)nc(N3CCC(N)CC3)nc12 [Compound 17] | B (B=less than 200 fold, but greater than 20 fold) | < 100 | 100 to 1000 | > 1000 | 1000 to 10000 | 1000 to 10000 | 100 to 1000 | – | B (B=less than 200 fold, but greater than 20 fold) | C (C=less than 20 fold)

Source: US11945822B2, “Pyrazolo-triazine and/or pyrazolo-pxrimidine derivatives as selective inhibitor of cyclin dependent kinase” (QURIENT CO., LTD., priority 2018, dated 2024)
